Assay results: publication PMC10547880, “Synthesis and biological evaluation of novel 1,2,3-triazole hybrids of cabotegravir: identification of potent antitumor activity against lung cancer” (Frontiers in Pharmacology, 2023)

Legend:
Type in all cases: cell-based, Human
[1] = system: H460 cells; assay: CCK8 cell viability and IC50 measurement, H460; details: for Cell viability: H460, 25 μM; for IC50: H460, 72 h, CCK8; for cell proliferation inhibition rate: H460, 72-h treatment
Method: (§1) Human lung cancer cell line H460 and H1299, human liver normal cell line LO2 were bought from ATCC. DMEM or RPMI 1640 was used as the cell culture medium with 10% FBS and 1% penicillin/streptomycin. Cells were maintained in an incubator with 37°C humidified atmosphere and 5% CO2.
(§2) Cell viability and IC50 values were determined using the CCK8 assay kit. Cells were seeded at a density of 5 × 10^3 cells per well in a 96-well plate. After overnight adhesion, 25 μM of compounds or vehicle control DMSO which all dissolved in the culture medium were added to cells and cultured for 48 h or 72 h. CCK8 reagent, dissolved in the medium, was then added to cells and incubated for 1 h. The absorbance at 450 nm was measured using a microplate spectrophotometer (Thermo). Cell viability was calculated, with the untreated group taken as 100%. For IC50 values determination, different concentrations (0, 0.4 μM, 2 μM, 10 μM, 20 μM, 50 μM) of compounds were added to cells for 72 h. Subsequent CCK8 measurement allowed the calculation of inhibition percentage based on cell viability. The IC50 values were computed by the prism statistical software. The CCK-8 assay was conducted three times and the repetitions in each time were at least three. All the values were expressed as Mean ± SD, p < 0.05 was considered statistically significant.
(§3) In order to assess the potential cytotoxicity of the synthesized compounds, we selected two types of human non-small-cell lung cancer cell line, H460 and H1299. Cell viability and cytotoxicity were evaluated using the CCK8 assay ([Xu et al., 2018]). The cells were treated with 25 μM of compounds 5a-5s and 6a-6i for 48h and 72 h. […] In contrast, no compounds managed to reduce H1299 cell viability to less than 50%, yet compounds 5i, 5m, 6h and 6i achieved cell viability rates below 70%. […] It is worth noting that minimal effects on the cell viability of the normal cell line LO2 were observed when exposed to these compounds. Further, we determined the half-maximal inhibitory concentration (IC50) of selected compounds against H460 cells, the results of which were summarized in Table 3.

[2] = system: H1299 cells; assay: CCK8 cell viability, H1299; details: H1299, 25 μM
Method: as §1, §2, §3

[3] = system: LO2 cells; assay: CCK8 cell viability, normal cell line LO2; details: LO2 normal liver cells, 25 μM, 72 h
Method: as §1, §2, §3

Row | Structure (SMILES) | Cell viability ([1]; 48 h) | Cell viability ([1]; 72 h) | Cell viability ([2]; 48 h) | Cell viability ([2]; 72 h) | Cell viability [3] | IC50 [1] | cell proliferation inhibition rate [1]
1 | COc1c2n(cc(C(=O)Nc3cccc(-c4cn(-c5ccccc5)nn4)c3)c1=O)CC1OCC(C)N1C2=O (stereo not drawn) [Compound 5p] | 88.36% | 104.18% | 114.26% | 87.16% | 109.72% |  | 
2 | COc1c2n(cc(C(=O)Nc3cccc(-c4cn(Cc5cccc(F)c5)nn4)c3)c1=O)CC1OCC(C)N1C2=O (stereo not drawn) [Compound 6i] | 97.90% | 95.51% | 99.47% |  | 127.14% |  | 
3 | COc1cccc(Cn2cc(-c3cccc(NC(=O)c4cn5c(c(OC)c4=O)C(=O)N4C(C)COC4C5)c3)nn2)c1 (stereo not drawn) [Compound 6g] | 93.36% | 95.01% | 91.06% | 94.37% | 130.54% |  | 
4 | COc1c2n(cc(C(=O)Nc3cccc(-c4cn(-c5cc(C(F)(F)F)ccc5C(F)(F)F)nn4)c3)c1=O)CC1OCC(C)N1C2=O (stereo not drawn) [Compound 5k] | 94.55% | 52.15% | 113.47% | 91.70% | 124.51% | 36 ± 2.73 µM | 
5 | COc1c2n(cc(C(=O)Nc3cccc(-c4cn(Cc5ccc(C(F)(F)F)cc5)nn4)c3)c1=O)CC1OCC(C)N1C2=O (stereo not drawn) [Compound 6d] | 113.95% | 105.14% | 113.99% | 93.95% | 104.58% |  | 
6 | COc1c2n(cc(C(=O)Nc3cccc(-c4cn(-c5ccccc5I)nn4)c3)c1=O)CC1OCC(C)N1C2=O (stereo not drawn) [Compound 5o] | 101.09% | 104.29% | 120.83% | 86.67% | 100.11% |  | 
7 | COc1c2n(cc(C(=O)Nc3cccc(-c4cn(-c5cc(C(F)(F)F)cc(C(F)(F)F)c5)nn4)c3)c1=O)CC1OCC(C)N1C2=O (stereo not drawn) [Compound 5e] | 101.34% | 101.97% | 103.75% | 99.34% | 129.12% | > 100 µM | 
8 | COc1c2n(cc(C(=O)Nc3cccc(-c4cn(Cc5ccccc5Br)nn4)c3)c1=O)CC1OCC(C)N1C2=O (stereo not drawn) [Compound 6b] | 51.88% |  | 104.60% | 101.92% | 126.52% | 30.5 ± 2.18 µM | exceed 50%
9 | COc1c2n(cc(C(=O)Nc3cccc(-c4cn(-c5ccc(C(F)(F)F)cc5)nn4)c3)c1=O)CC1OCC(C)N1C2=O (stereo not drawn) [Compound 5j] | 100.66% | 111.72% | 96.98% | 92.49% | 108.63% |  | 
10 | COc1c2n(cc(C(=O)Nc3cccc(-c4cn(Cc5ccc(Cl)cc5)nn4)c3)c1=O)CC1OCC(C)N1C2=O (stereo not drawn) [Compound 6f] | 91.99% | 94.49% | 104.20% | 96.47% | 130.96% |  | 
11 | COc1c2n(cc(C(=O)Nc3cccc(-c4cn(-c5c(C)cc(C)cc5C)nn4)c3)c1=O)CC1OCC(C)N1C2=O (stereo not drawn) [Compound 5l] | 84.74% | 98.25% | 118.92% | 91.44% | 125.46% |  | 
12 | CCc1ccccc1-n1cc(-c2cccc(NC(=O)c3cn4c(c(OC)c3=O)C(=O)N3C(C)COC3C4)c2)nn1 (stereo not drawn) [Compound 5d] | 92.17% |  | 117.48% | 99.81% | 127.81% | 12.7 ± 4.85 µM | exceed 50%
13 | COc1c2n(cc(C(=O)Nc3cccc(-c4cn(-c5ccccc5C)nn4)c3)c1=O)CC1OCC(C)N1C2=O (stereo not drawn) [Compound 5c] |  |  | 94.81% | 83.51% | 73.79% | 9.65 ± 0.04 µM | exceed 50%
14 | COc1c2n(cc(C(=O)Nc3cccc(-c4cn(-c5cccc(Br)c5)nn4)c3)c1=O)CC1OCC(C)N1C2=O (stereo not drawn) [Compound 5r] | 99.03% | 107.13% | 117.54% | 89.82% | 127.81% |  | 
15 | COc1c2n(cc(C(=O)Nc3cccc(-c4cn(-c5ccccc5Cl)nn4)c3)c1=O)CC1OCC(C)N1C2=O (stereo not drawn) [Compound 5s] | 71.73% |  | 127.14% | 97.37% | 122.75% | 13.4 ± 4.54 µM | exceed 50%
16 | COc1c2n(cc(C(=O)Nc3cccc(-c4cn(-c5ccccc5Br)nn4)c3)c1=O)CC1OCC(C)N1C2=O (stereo not drawn) [Compound 5m] | 96.50% | 94.59% | 112.42% |  | 111.3% | > 50 µM | 
17 | COc1c2n(cc(C(=O)Nc3cccc(-c4cn(-c5ccc(F)cc5)nn4)c3)c1=O)CC1OCC(C)N1C2=O (stereo not drawn) [Compound 5n] | 99.22% | 105.04% | 115.05% | 91.74% | 127.86% |  | 
18 | COc1c2n(cc(C(=O)Nc3cccc(-c4cn(Cc5ccccc5C(F)(F)F)nn4)c3)c1=O)CC1OCC(C)N1C2=O (stereo not drawn) [Compound 6e] | 77.85% | 60.74% | 127.00% | 92.15% | 127.55% | 22.88 ± 0.13 µM | 
19 | COc1ccccc1-n1cc(-c2cccc(NC(=O)c3cn4c(c(OC)c3=O)C(=O)N3C(C)COC3C4)c2)nn1 (stereo not drawn) [Compound 5g] | 82.94% | 99.43% | 117.81% | 103.45% | 128.56% |  | 
20 | COc1c2n(cc(C(=O)Nc3cccc(-c4cn(-c5cccc(Cl)c5)nn4)c3)c1=O)CC1OCC(C)N1C2=O (stereo not drawn) [Compound 5q] | 99.40% | 104.14% | 107.23% | 88.40% | 125.35% | > 100 µM | 
21 | COc1c2n(cc(C(=O)Nc3cccc(-c4cn(Cc5ccccc5C)nn4)c3)c1=O)CC1OCC(C)N1C2=O (stereo not drawn) [Compound 6c] | 105.51% | 101.80% | 110.58% | 97.63% | 103.41% |  | 
22 | COc1c2n(cc(C(=O)Nc3cccc(-c4cn(Cc5ccccc5Cl)nn4)c3)c1=O)CC1OCC(C)N1C2=O (stereo not drawn) [Compound 6h] |  |  | 126.87% |  | 88.86% | 15.86 ± 0.09 µM | exceed 50%
23 | COc1c2n(cc(C(=O)Nc3cccc(-c4cn(-c5cccc(F)c5)nn4)c3)c1=O)CC1OCC(C)N1C2=O (stereo not drawn) [Compound 5f] | 93.31% | 100.16% | 114.19% | 100.41% | 130.35% |  | 
24 | COc1c2n(cc(C(=O)Nc3cccc(-c4cn(Cc5ccccc5)nn4)c3)c1=O)CC1OCC(C)N1C2=O (stereo not drawn) [Compound 6a] | 99.81% | 118.33% | 118.73% | 101.39% | 127.44% | > 50 µM | 
25 | COc1c2n(cc(C(=O)Nc3cccc(-c4cn(-c5cccc(C(F)(F)F)c5)nn4)c3)c1=O)CC1OCC(C)N1C2=O (stereo not drawn) [Compound 5h] | 97.75% | 75.09% | 114.98% | 93.73% | 101.34% | > 100 µM | 
26 | COc1c2n(cc(C(=O)Nc3cccc(-c4cn(-c5ccccc5C(F)(F)F)nn4)c3)c1=O)CC1OCC(C)N1C2=O (stereo not drawn) [Compound 5a] | 87.78% | 65.75% | 121.35% | 102.55% | 105.28% | 31.8 ± 0.47 µM | 
